Experimental data taken from patent publication US12357586B2, “Use of the phytocannabinoid cannabidiol (CBD) in combination with a standard anti-epileptic drug (SAED) in the treatment of epilepsy” (JAZZ PHARMACEUTICALS RESEARCH UK LIMITED, priority 2011, dated 2025).

Assays:
[1] = system: pilocarpine-induced seizures; test: pilocarpine model of (temporal lobe) epilepsy; assay type: in vivo
Method: Isolated CBD was injected intra-peritoneally (IP) in the standard vehicle (1:1:18 ethanol:Cremophor:0.9% w/v NaCl) at doses of 50, 100 and 200 mg/kg alongside animals that received vehicle alone at a matched volume. 15 minutes later methylscopolamine (1 mg/kg; to reduce peripheral muscarinic effects of pilocarpine) was administered followed, 45 minutes later by pilocarpine (380 mg/kg, IP) administration.

grand mal patients = conditions: 200-300 mg of cannabidiol plus regular medication; cited from earlier work
epileptic patients = conditions: 200-300 mg of cannabidiol per day in addition to standard antiepileptic drugs; 12 epileptic patients; cited from earlier work
[2] = system: seizure frequency in a single patient; conditions: 900-1200 mg of cannabidiol a day for 10 months; cited from earlier work
[3] = system: institutionalized children not responding to standard treatment; conditions: 5 institutionalized children not responding to phenobarbital and phenoytin; cited from earlier work
[4] = CBD 100 mg/kg, Phenobarbitol 0 mg/kg
[5] = significance of effect, pilocarpine model
[6] = CBD 0 mg/kg, Phenobarbitol 10 mg/kg
[7] = CBD 0 mg/kg, Phenobarbitol 20 mg/kg
[8] = CBD 0 mg/kg, Phenobarbitol 40 mg/kg

Compound: C=C(C)[C@@H]1CCC(C)=C[C@H]1c1c(O)cc(CCCCC)cc1O [CBD, cannabidiol]
- Onset latency [1, 4]: 500 s
- Seizure free (%) [1, 4]: 0%
- ALL EPISODES Mean severity of episodes [1, 5]: * (* = p < 0.05)
- EPISODE 2 Severity [1, 5]: * (* = p < 0.05)
- patients who remained unchanged (grand mal patients): 1
- patients who showed complete improvement (grand mal patients): 3
- patients who showed minor improvement (grand mal patients): 2
- patients who showed partial improvement (grand mal patients): 2
- unwanted effect (grand mal patients): mild sedation
- improvement in seizure frequency (epileptic patients): no significant improvement in seizure frequency
- seizure frequency [2]: markedly reduced

Compound: CCC1(c2ccccc2)C(=O)NC(=O)NC1=O [Phenobarbitol, phenobarbital]
- Onset latency [1, 6]: 800 s
- Seizure free (%) [1, 6]: 25%
- Onset latency [1, 7]: 900 s
- Seizure free (%) [1, 7]: 55%
- Onset latency [1, 8]: 1800 s
- Seizure free (%) [1, 8]: 75%

Compound: CCCC(CCC)C(=O)O [Valproate, valproate]
- ALL EPISODES Mean duration of episodes [1, 5]: * (* = p < 0.05)
- ALL EPISODES Mean number of episodes [1, 5]: ** (** = p < 0.01)
- ALL EPISODES Mean severity of episodes [1, 5]: ** (** = p < 0.01)
- ALL EPISODES Mean time spent in episodes [1, 5]: * (* = p < 0.05)
- ALL EPISODES Percentage episode free [1, 5]: ** (** = p < 0.01)
- ALL EPISODES Percentage ≥3 episodes [1, 5]: # (# = p < 0.01)
- EPISODE 1 Latency [1, 5]: ** (** = p < 0.01)
- EPISODE 1 Severity [1, 5]: * (* = p < 0.05)
- EPISODE 2 Duration [1, 5]: # (# = p < 0.01)
- EPISODE 2 Latency [1, 5]: # (# = p < 0.01)

Compound: CCCCCc1cc(O)c2c(c1)OC(C)(C)[C@@H]1CCC(C)=C[C@@H]21 [THC, tetrahydrocannabinol]
- seizure outcome [3]: One became entirely free of seizures, one became almost completely free of seizures, and the other three did no worse than before
